{"source": "patent US20040082521A1", "about": "“Novel formulations of digitalis glycosides for treating cell-proliferative and other diseases” (Azaya Therapeutics Inc., priority 2002, published 2004)", "origin": "cited, not measured here", "key": {"[1]": {"test_system": "FGF-2 release from PC3 cells", "details": "0.1 ng/mL"}, "[2]": {"test_system": "FGF-2 release from DU145 cells", "details": "0.1 ng/mL"}, "[3]": {"test_system": "various cancer cell lines"}, "[4]": {"test_system": "human cancer cells"}, "[5]": {"test_system": "androgen-independent human prostate cancer cell lines", "details": "for apoptosis: in vitro"}, "[6]": {"test_system": "NF-κB"}, "[7]": {"test_system": "AP-1"}, "[8]": {"test_system": "c-Jun NH2terminal kinase"}, "[9]": {"test_system": "human malignant cell lines", "details": "for growth and apoptosis: non-toxic concentrations"}}, "data": [{"smiles": "CO[C@H]1C[C@H](O[C@H]2CC[C@@]3(C)[C@H](CC[C@@H]4[C@@H]3CC[C@]3(C)[C@@H](C5=CC(=O)OC5)[C@@H](OC(C)=O)C[C@]43O)C2)O[C@@H](C)[C@@H]1O", "note": "[Oleandrin, 16b-acetoxy-3b-[(2,6-dideoxy-3-0-methyl-a2-L-arabino-hexopyranosyl)oxy]14-hydroxy-5β, 14β-card-20(22)-enolide]", "values": [{"measurement": "inhibition of FGF-2 release", "setting": "[1]", "value": 45.7, "unit": "%"}, {"measurement": "inhibition of FGF-2 release", "setting": "[2]", "value": 49.9, "unit": "%"}, {"measurement": "anti-cancer activities", "setting": "[3]", "value": "significant anti-cancer activities"}, {"measurement": "cell-killing potency", "setting": "[4]; comparison Oleandrin vs water extract", "value": "greater than that of the water extract"}, {"measurement": "cell killing", "setting": "[4]; human cancer cells", "value": "able to induce cell killing"}, {"measurement": "caspase activation", "setting": "[5]; cleavage of poly (ADP-ribose) polymerase, hydrolysis of DEVD-pNA", "value": "promoted caspase activation"}, {"measurement": "apoptosis", "setting": "[5]", "value": "induce apoptosis"}, {"measurement": "TNF-induced activation of NF-κB", "setting": "[6]; TNF-induced", "value": "blocked"}, {"measurement": "NF-κB activation induced by phorbol ester and lipopolysaccharide", "setting": "[6]; phorbol ester and lipopolysaccharide", "value": "blocked"}, {"measurement": "NF-κB-dependent reporter gene transcription activated by TNF", "setting": "[6]; reporter gene", "value": "suppressed"}, {"measurement": "AP-1 activation induced by TNF and other agents", "setting": "[7]", "value": "blocked"}, {"measurement": "TNF-induced activation of c-Jun NH2terminal kinase", "setting": "[8]", "value": "inhibited"}, {"measurement": "elimination from the body", "setting": "in vivo", "value": "one to two"}, {"measurement": "distribution in the body", "setting": "when ingested", "value": "widely distributed in the body"}]}, {"smiles": "C[C@@H]1O[C@@H](O[C@H]2C[C@@H](O)[C@]3(CO)[C@H]4[C@H](O)C[C@]5(C)[C@@H](C6=CC(=O)OC6)CC[C@]5(O)[C@@H]4CC[C@]3(O)C2)[C@H](O)[C@H](O)[C@H]1O", "note": "[Ouabain, reference compound]", "values": [{"measurement": "apoptosis", "setting": "[5]", "value": "induce apoptosis"}]}, {"smiles": "CO[C@@H]1C[C@H](O[C@H]2CC[C@@]3(C)[C@H](CC[C@@]45O[C@@]46CC[C@H](C4=CC(=O)OC4)[C@@]6(C)CC[C@H]35)C2)O[C@H](C)[C@@H]1O", "note": "[adynerin]", "values": [{"measurement": "anti-cancer activities", "setting": "[3]", "value": "significant anti-cancer activities"}]}, {"smiles": "C[C@H]1O[C@@H](O[C@H]2[C@@H](O)C[C@H](O[C@H]3[C@@H](O)C[C@H](O[C@H]4CC[C@@]5(C)[C@H](CC[C@@H]6[C@@H]5CC[C@]5(C)[C@@H](C7=CC(=O)OC7)CC[C@]65O)C4)O[C@@H]3C)O[C@@H]2C)C[C@H](O)[C@@H]1O", "note": "[digitoxin]", "values": [{"measurement": "apoptosis-inducing effect", "setting": "[9]; in vitro, digitoxin vs digoxin", "value": "more potent for digitoxin than for digoxin"}, {"measurement": "growth and apoptosis", "setting": "[9]", "value": "inhibits growth and induce apoptosis"}]}, {"smiles": "C[C@H]1O[C@@H](O[C@H]2[C@@H](O)C[C@H](O[C@H]3[C@@H](O)C[C@H](O[C@H]4CC[C@@]5(C)[C@H](CC[C@@H]6[C@@H]5C[C@@H](O)[C@]5(C)[C@@H](C7=CC(=O)OC7)CC[C@]65O)C4)O[C@@H]3C)O[C@@H]2C)C[C@H](O)[C@@H]1O", "note": "[digoxin, reference compound]", "values": [{"measurement": "growth and apoptosis", "setting": "[9]", "value": "inhibits growth and induce apoptosis"}, {"measurement": "apoptosis", "setting": "[5]", "value": "induce apoptosis"}]}, {"smiles": "C[C@H]1[C@H](C)CC[C@]2(C(=O)O)CC[C@]3(C)C(=CC[C@@H]4[C@@]5(C)CC[C@H](O)C(C)(C)[C@@H]5CC[C@]43C)[C@H]12", "note": "[ursolic acid]", "values": [{"measurement": "anti-cancer activities", "setting": "[3]", "value": "significant anti-cancer activities"}]}]}
